Results reported in US9371319B2, “Pyrrolopyridineamino derivatives as MPS1 inhibitors” (priority 2011, dated 2016).

target: T1, full length MPS1 (Homo sapiens, UniProt P33981); experiment: biochemical
T1 sequence (P33981 1-857): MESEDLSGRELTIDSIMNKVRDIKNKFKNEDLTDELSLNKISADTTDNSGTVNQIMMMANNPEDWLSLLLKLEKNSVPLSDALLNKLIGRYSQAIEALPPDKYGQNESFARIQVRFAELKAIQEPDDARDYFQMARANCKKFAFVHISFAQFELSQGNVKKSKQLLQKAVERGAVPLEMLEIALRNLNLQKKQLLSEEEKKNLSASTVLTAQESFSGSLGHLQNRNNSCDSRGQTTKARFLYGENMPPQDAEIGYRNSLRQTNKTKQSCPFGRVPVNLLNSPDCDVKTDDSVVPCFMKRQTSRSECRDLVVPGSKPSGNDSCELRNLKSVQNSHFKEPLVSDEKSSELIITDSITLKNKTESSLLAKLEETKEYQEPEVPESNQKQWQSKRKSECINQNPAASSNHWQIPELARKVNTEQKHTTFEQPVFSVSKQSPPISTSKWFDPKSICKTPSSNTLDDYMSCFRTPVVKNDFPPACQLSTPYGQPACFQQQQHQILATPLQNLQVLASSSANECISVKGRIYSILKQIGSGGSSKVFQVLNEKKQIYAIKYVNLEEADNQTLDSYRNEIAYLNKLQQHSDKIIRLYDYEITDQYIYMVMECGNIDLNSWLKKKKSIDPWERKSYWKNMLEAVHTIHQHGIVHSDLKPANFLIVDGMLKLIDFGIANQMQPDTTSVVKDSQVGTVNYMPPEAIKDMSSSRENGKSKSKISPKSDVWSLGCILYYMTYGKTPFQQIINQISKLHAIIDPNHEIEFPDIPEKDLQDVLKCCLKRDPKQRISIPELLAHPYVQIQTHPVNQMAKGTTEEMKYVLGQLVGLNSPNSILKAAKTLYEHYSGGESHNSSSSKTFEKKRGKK
Experimental: Measurement of Inhibition of MPS1 Kinase
(5 μM), ATP (10 μM), either DMSO (1% v/v) or the test compound (in the range 0.25 nM-100 μM in 1% DMSO) and assay buffer (50 mM HEPES (pH 7.0), 0.02% NaN3, 0.01% BSA, 0.1 mM Orthovandate, […], 1 μM DTT, Roche protease inhibitor). The reaction was carried out for 60 min at room temperature and stopped by the addition of buffer (10 μl) containing 20 mM EDTA, 0.05% (v/v) Brij-35, in 0.1M HEPES-buffered saline (Free acid, Sigma, UK). The plate was read on a Caliper EZ reader II (Caliper Life Sciences).
The % inhibition of the compounds is calculated relative to the means of selected control wells. […] The % inhibitions at each concentration are then fitted to a 4 parameter logistic fit: y=(a+((b−a)/(1+((c/x^d)))) where a=asym min, b=asym max, c=IC50 and d=hill coefficient

Structure (SMILES)	IC50
COc1ccc(Nc2cc3c(cn2)cc(-c2cn[nH]c2)n3C)cc1OC [Example 126, N-(3,4-dimethoxyphenyl)-1-methyl-2-(1H-pyrazol-4-yl)-1H-pyrrolo[3,2-c]pyridin-6-amine]	26 nM
COc1ccc(Nc2cc3[nH]c(-c4cn[nH]c4)cc3cn2)c(OC)c1 [Example 160, N-(2,4-Dimethoxyphenyl)-2-(1H-pyrazol-4-yl)-1H-pyrrolo[3,2-c]pyridin-6-amine]	19 nM
CCN(C)C(=O)c1ccc(Nc2cc3c(cn2)cc(-c2cnn(C)c2)n3C(=O)OC(C)(C)C)c(Cl)c1 [Example 39]	4 nM
Cn1cc(-c2cc3cnc(Nc4ccc(F)cc4Cl)cc3[nH]2)cn1 [Example 130, N-(2-Chloro-4-fluorophenyl)-2-(1-methyl-1H-pyrazol-4-yl)-1H-pyrrolo[3,2-c]pyridin-6-amine]	510 nM
CN(C)C(=O)c1ccc(Nc2cc3c(cn2)cc(-c2cnn(C)c2)n3-c2ncccn2)c(Cl)c1 [Example 93]	94 nM
Cn1cc(-c2cc3cnc(Nc4ccc(-c5nccn5C)cc4Cl)cc3n2C(=O)OC(C)(C)C)cn1 [Example 22]	3 nM
COc1cc(CN)ccc1Nc1cc2[nH]c(-c3cnn(C)c3)cc2cn1 [Example 140, N-(4-(Aminomethyl)-2-methoxyphenyl)-2-(1-methyl-1H-pyrazol-4-yl)-1H-pyrrolo[3,2-c]pyridin-6-amine]	43 nM
Cn1cc(-c2cc3cnc(Nc4ccc(OC(F)F)cc4Cl)cc3[nH]2)cn1 [Example 132, N-(2-Chloro-4-(difluoromethoxy)phenyl)-2-(1-methyl-1H-pyrazol-4-yl)-1H-pyrrolo[3,2-c]pyridin-6-amine]	288 nM
COc1ncccc1Nc1cc2[nH]c(-c3cnn(C)c3)cc2cn1 [Example 112, N-(2-Methoxypyridin-3-yl)-2-(1-methyl-1H-pyrazol-4-yl)-1H-pyrrolo[3,2-c]pyridin-6-amine]	21 nM
COc1cc(-c2ccc(Nc3cc4[nH]c(-c5cnn(C)c5)cc4cn3)c(Cl)c2)ccn1 [Example 151, N-(2-Chloro-4-(2-methoxypyridin-4-yl)phenyl)-2-(1-methyl-1H-pyrazol-4-yl)-1H-pyrrolo[3,2-c]pyridin-6-amine]	182 nM
CC(C)OC(=O)n1c(-c2cnn(C)c2)cc2cnc(Nc3ccc(-c4cnn(C)c4)cc3Cl)cc21 [Example 76]	17 nM
COc1cc(C(=O)N2CC(OC)C2)ccc1Nc1cc2[nH]c(-c3cnn(C)c3)cc2cn1 [Example 120, (3-Methoxy-4-(2-(1-methyl-1H-pyrazol-4-yl)-1H-pyrrolo[3,2-c]pyridin-6-ylamino)phenyl)(3-methoxyazetidin-1-yl)methanone]	7 nM
Cc1nc(C)c(-c2ccc(Nc3cc4c(cn3)cc(-c3cnn(C)c3)n4C(=O)OC(C)(C)C)c(Cl)c2)s1 [Example 45]	52 nM
COc1cc(CN2CCCC2)ccc1Nc1cc2[nH]c(-c3cnn(C)c3)cc2cn1 [Example 137, N-(2-methoxy-4-(pyrrolidin-1-ylmethyl)phenyl)-2-(1-methyl-1H-pyrazol-4-yl)-1H-pyrrolo[3,2-c]pyridin-6-amine]	25 nM
Cn1cc(-c2cc3cnc(Nc4ccc(-n5cncn5)cc4Cl)cc3[nH]2)cn1 [Example 129, N-(2-Chloro-4-(1H-1,2,4-triazol-1-yl)phenyl)-2-(1-methyl-1H-pyrazol-4-yl)-1H-pyrrolo[3,2-c]pyridin-6-amine]	55 nM
Cc1ncc(-c2ccc(Nc3cc4c(cn3)cc(-c3cnco3)n4C(=O)OC(C)(C)C)c(Cl)c2)n1C [Example 107]	2 nM

Other lines, results leading:

IC50	Structure (SMILES)
1 nM	Cn1cc(-c2cc3cnc(Nc4ccc(-c5nncn5C)cc4Cl)cc3n2C(=O)OC(C)(C)C)cn1 [Example 18]
2 nM	CS(=O)(=O)c1ccc(Nc2cc3[nH]c(-c4cn[nH]c4)cc3cn2)c(Cl)c1 [Example 154, N-(2-chloro-4-(methylsulfonyl)phenyl)-2-(1H-pyrazol-4-yl)-1H-pyrrolo[3,2-c]pyridin-6-amine]
2 nM	Cc1ncc(-c2ccc(Nc3cc4c(cn3)cc(-c3cnco3)n4C(=O)OC(C)C)c(Cl)c2)n1C [Example 106]
19 nM	Cn1cc(-c2cc3cnc(Nc4ccc(-c5ccnn5C)cc4Cl)cc3n2C(=O)OC(C)(C)C)cn1 [Example 44]
29 nM	Cc1ncc(-c2ccc(Nc3cc4c(cn3)cc(-c3cnn(C)c3)n4CC3CC3)c(Cl)c2)n1C [Example 105]
5 nM	COc1cc(C(=O)N2CCOCC2)ccc1Nc1cc2c(cn1)cc(-c1cnn(C)c1)n2C(=O)OC(C)(C)C [Example 10]
7 nM	COc1cc(C(=O)N2CCS(=O)(=O)CC2)ccc1Nc1cc2[nH]c(-c3cnn(C)c3)cc2cn1 [Example 115, (3-Methoxy-4-(2-(1-methyl-1H-pyrazol-4-yl)-1H-pyrrolo[3,2-c]pyridin-6-ylamino)phenyl)(thiomorpholino)methanone-S,S-dioxide]
91 nM	CN(C)C(=O)c1cc(Cl)c(Nc2cc3[nH]c(-c4cnn(C)c4)cc3cn2)c(Cl)c1 [Example 121, 3,5-Dichloro-N,N-dimethyl-4-(2-(1-methyl-1H-pyrazol-4-yl)-1H-pyrrolo[3,2-c]pyridin-6-ylamino)benzamide]
9 nM	Cn1cc(-c2[nH]c3cc(Nc4ccc(C(=O)N5CCS(=O)(=O)CC5)cc4Cl)ncc3c2Cl)cn1 [Example 196, (3-Chloro-4-(3-chloro-2-(1-methyl-1H-pyrazol-4-yl)-1H-pyrrolo[3,2-c]pyridin-6-ylamino)phenyl)(S,S-dioxo-thiomorpholino)methanone]
140 nM	Fc1ccc(Nc2cc3[nH]c(-c4cn[nH]c4)cc3cn2)cc1 [Example 188, N-(4-fluorophenyl)-2-(1H-pyrazol-4-yl)-1H-pyrrolo[3,2-c]pyridin-6-amine]
20 nM	CN1CCN(C(=O)c2ccc(Nc3cc4[nH]c(-c5cnn(C)c5)cc4cn3)c(Cl)c2)CC1 [Example 146, (3-Chloro-4-(2-(1-methyl-1H-pyrazol-4-yl)-1H-pyrrolo[3,2-c]pyridin-6-ylamino)phenyl)(4-methylpiperazin-1-yl) methanone]
47 nM	CN(C)C(=O)c1ccc(Nc2cc3c(cn2)cc(-c2cnn(C)c2)n3CC2CCCC2)c(Cl)c1 [Example 64, 3-Chloro-4-(1-(cyclopentylmethyl)-2-(1-methyl-1H-pyrazol-4-yl)-1H-pyrrolo[3,2-c]pyridin-6-ylamino)-N,N-dimethylbenzamide]
6 nM	CC(C)OC(=O)n1c(-c2cnn(C)c2)cc2cnc(Nc3ccc(C(=O)N(C)C)cc3Cl)cc21 [Example 77]
8 nM	CN1CCN(C(=O)c2ccc(Nc3cc4c(cn3)cc(-c3cnn(C)c3)n4C(=O)OC(C)(C)C)c(Cl)c2)CC1 [Example 41]
3 nM	Cn1cc(-c2cc3cnc(Nc4ccc(-c5cncn5C)cc4Cl)cc3n2C2CCCC2)cn1 [Example 80]
11 nM	CN(C)C(=O)c1ccc(Nc2cc3[nH]c(-c4cn[nH]c4)cc3cn2)cc1 [Example 168, 4-(2-(1H-Pyrazol-4-yl)-1H-pyrrolo[3,2-c]pyridin-6-ylamino)-N,N-dimethylbenzamide]
4 nM	O=S1(=O)CCN(Cc2ccc(Nc3cc4[nH]c(-c5cn[nH]c5)cc4cn3)cc2)CC1 [Example 175, 2-(1H-Pyrazol-4-yl)-N-(4-(thiomorpholinomethyl)phenyl)-1H-pyrrolo[3,2-c]pyridin-6-amine-S,S-dioxide]
21 nM	COC1CN(C(=O)c2ccc(Nc3cc4[nH]c(-c5cnn(C)c5)c(Cl)c4cn3)c(Cl)c2)C1 [Example 195, (3-chloro-4-(3-chloro-2-(1-methyl-1H-pyrazol-4-yl)-1H-pyrrolo[3,2-c]pyridin-6-ylamino)phenyl)(3-methoxyazetidin-1-yl)methanone]
3 nM	CC(C)OC(=O)n1c(-c2cnn(C)c2)cc2cnc(Nc3ccc(-c4cncn4C)cc3Cl)cc21 [Example 79]
69 nM	Cn1cc(-c2[nH]c3cc(Nc4ccc(S(C)(=O)=O)cc4Cl)ncc3c2Cl)cn1 [Example 197, 3-Chloro-N-(2-chloro-4-(methylsulfonyl)phenyl)-2-(1-methyl-1H-pyrazol-4-yl)-1H-pyrrolo[3,2-c]pyridin-6-amine]
5 nM	Cn1cc(-c2cc3cnc(Nc4ccc(-c5cncn5C)cc4Cl)cc3n2C(=O)OC2CCC2)cn1 [Example 82]
12 nM	Cn1cc(-c2ccc(Nc3cc4c(cn3)cc(-c3cnn(C)c3)n4C(=O)OC3CCCC3)c(Cl)c2)cn1 [Example 75]
